Source: publication PMC6190829 (Journal of medicinal chemistry, 2018)
Where “and” joins values, the source holds several entries; their conditions need not be identical. Equal values may be shown once. Entries after “also recorded” stand apart in the source; their conditions may differ. Blank lines part the entries; values can stand above or below the molecule they belong to.

Experiments:
HaCaT cells [1] = test: Immunoblot of NRF2, NQO1, GCLM protein levels; assay type: cell-based, human; conditions: 10 μM
[2] = Microsomal stability, mouse liver microsomes; assay type: in vitro ADME; conditions: 1 μM, 20 min, NADPH
Solubility in DMSO = assay type: physicochemical
[3] = tested on: Salmonella typhimurium (TA98, TA100, TA1535, TA1537) and Escherichia coli (WP2 uvrA (pKM101)); test: Mini-Ames assay, cytotoxicity and overall judgement over all strains; conditions: for Cytotoxicity in Mini-Ames assay: 1.5-1000 μg/well, any dose level; for Mutagenicity judgement: Mini-Ames, with and without S9
[4] = tested on: Salmonella typhimurium (TA98, TA100, TA1535, TA1537); test: Mini-Ames assay, revertant colonies per strain; conditions: for Dose response of revertant increase: 6a: TA98 and TA100
HaCaT cells [5] = test: Nuclear accumulation of NRF2; assay type: cell-based, human; conditions: 10 μM, 6 and 24 hours, vs DMSO control
HaCaT cells [6] = test: NRF2 target gene mRNA expression; assay type: cell-based, human; conditions: 10 μM
Kelch domain of KEAP1 [7] = molecular target: T1, Kelch domain of KEAP1 (Homo sapiens, UniProt Q14145); test: Fluorescence anisotropy; conditions: IC50 (nM) (95% CI), fluorescent NRF2 peptide / KEAP1 Kelch domain
Kelch domain of KEAP1 [8] = molecular target: T1, Kelch domain of KEAP1; test: Surface plasmon resonance assay
[9] = Kinetic aqueous solubility in buffer pH 7.4; assay type: physicochemical
[10] = cited from earlier work
[11] = with S9 mix, higher dose levels, vs vehicle control

T1 sequence (Q14145 321-609 limits assumed): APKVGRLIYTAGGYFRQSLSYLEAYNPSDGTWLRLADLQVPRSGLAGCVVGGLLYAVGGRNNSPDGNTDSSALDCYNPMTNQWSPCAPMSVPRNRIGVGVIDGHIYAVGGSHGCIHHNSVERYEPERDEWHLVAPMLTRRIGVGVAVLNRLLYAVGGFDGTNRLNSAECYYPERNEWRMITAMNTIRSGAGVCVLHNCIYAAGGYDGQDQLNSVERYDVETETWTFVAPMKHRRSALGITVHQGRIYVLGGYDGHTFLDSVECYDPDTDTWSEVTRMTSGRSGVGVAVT

Compound: CC1(C)CC[C@]2(C(=O)n3ccnc3)CC[C@]3(C)[C@H](C(=O)C=C4[C@@]5(C)C=C(C#N)C(=O)C(C)(C)[C@@H]5CC[C@]43C)[C@@H]2C1 [CDDO-Im, reference compound]
GCLM protein level (HaCaT cells [1]; 24 h, vs vehicle): significantly higher
NQO1 protein level (HaCaT cells [1]; 24 h, vs vehicle): higher
NRF2 protein level (HaCaT cells [1]; 24 h, vs vehicle): higher

Compound: COc1ccc(S(=O)(=O)N(CC(=O)O)c2ccc(N(CC(=O)O)S(=O)(=O)c3ccc(OC)cc3)c3ccccc23)cc1 [Compound 6a]
Compound remaining after incubation, mouse liver microsomes [2]: stable
solubility (Solubility in DMSO): ≤ 50 mg/mL
Cytotoxicity in Mini-Ames assay [3]: No cytotoxicity
Mutagenicity judgement [3]: positive for mutagenicity
Dose response of revertant increase [4]: Dose response was also observed
Increase in revertants, TA100 [4, 11]: > 2 fold
Increase in revertants, TA1535 [4, 11]: > 3 fold

Compound: COc1ccc(S(=O)(=O)N(CC(=O)O)c2ccc(N(CC(=O)O)S(=O)(=O)c3ccc(OC)cc3)c3ncccc23)cc1 [Compound 23]
NRF2 accumulation in the nucleus (HaCaT cells [5]): small significant increase; also recorded: modest increase
SOD mRNA expression (not an NRF2 target gene) (HaCaT cells [6]): neither isoquinoline 17 nor quinoline 23 produced a significant increase
GCLC mRNA expression (HaCaT cells [6]; 6 and 24 hours): small increase
GCLM mRNA expression (HaCaT cells [6]; 6 and 24 hours): small increase
HMOX1 mRNA expression (HaCaT cells [6]; 6 and 24 hours): no increase
NQO1 mRNA expression (HaCaT cells [6]; 6 and 24 hours): small increase
NQO1 protein level (HaCaT cells [1]; 6 h, vs DMSO): modest increase
NRF2 protein level (HaCaT cells [1]; 6 h, vs DMSO): modest increase
GCLM protein level (HaCaT cells [1]; 24 h, vs vehicle): modestly increased
NQO1 protein level (HaCaT cells [1]; 24 h, vs vehicle): no effect
NRF2 protein level (HaCaT cells [1]; 24 h, vs vehicle): no effect

Stability of the compound (Compound stability): unstable
Compound: COc1ccc(S(=O)(=O)N(CC(=O)O)c2ccc(N(CC(=O)O)S(=O)(=O)c3ccc(OC)cc3)c3[nH]ccc23)cc1 [Compound 29, 2,2’-((1H-indole-4,7-diyl)bis(((4-methoxyphenyl)sulfonyl)azanediyl))diacetic acid]

IC50 (Kelch domain of KEAP1 [7]): 1000 nM and 1100 nM
Compound remaining after incubation, mouse liver microsomes [2]: comparable to the other compounds
Kd (Kelch domain of KEAP1 [8]): > 10000 nM
Compound: COc1ccc(S(=O)(=O)Nc2nnc(N(CC(=O)O)S(=O)(=O)c3ccc(OC)cc3)c3ccccc23)cc1 [Compound 34, N-(4-((4-methoxyphenyl)sulfonamido)phthalazin-1-yl)-N-((4-methoxyphenyl)sulfonyl)glycine]
NQO1 protein level (HaCaT cells [1]; 6 h, vs DMSO): no increase
NRF2 protein level (HaCaT cells [1]; 6 h, vs DMSO): no increase

Aqueous solubility [9]: poor solubility
Compound: COc1ccc(S(=O)(=O)N(CC(N)=O)c2ccc(N(CC(N)=O)S(=O)(=O)c3ccc(OC)cc3)c3ccccc23)cc1 [Compound 6b]
NQO1 protein level (HaCaT cells [1]; 6 h, vs DMSO): modest increase
NRF2 protein level (HaCaT cells [1]; 6 h, vs DMSO): modest increase
GCLM protein level (HaCaT cells [1]; 24 h, vs vehicle): significantly higher
NQO1 protein level (HaCaT cells [1]; 24 h, vs vehicle): Increased
NRF2 protein level (HaCaT cells [1]; 24 h, vs vehicle): Increased

IC50 (Kelch domain of KEAP1 [7]): > 25000 nM
Compound: COc1ccc(S(=O)(=O)N(CC(=O)O)c2cc(-c3ccccc3)cc(N(CC(=O)O)S(=O)(=O)c3ccc(OC)cc3)c2)cc1 [Compound 46, 2,2’-(1,1’-biphenyl]-3,5-diylbis(((4-methoxyphenyl)sulfonyl)azanediyl) diacetic acid]

Aqueous solubility [9]: modest aqueous solubilities
Compound: COc1ccc(S(=O)(=O)Nc2ccc(NS(=O)(=O)c3ccc(OC)cc3)c3ccccc23)cc1 [Compound 5]

Compound: COc1ccc(S(=O)(=O)N(CC(=O)O)c2cnc(N(CC(=O)O)S(=O)(=O)c3ccc(OC)cc3)c3ccccc23)cc1 [Compound 17, 2,2’-(isoquinoline-1,4-diylbis(((4-methoxyphenyl)sulfonyl)azanediyl))diacetic acid]
Cytotoxicity in Mini-Ames assay [3]: No cytotoxicity
Mutagenicity judgement [3]: better mutagenic profile than naphthalene 6a
Dose response of revertant increase [4]: No dose response was observed
SOD mRNA expression (not an NRF2 target gene) (HaCaT cells [6]): neither isoquinoline 17 nor quinoline 23 produced a significant increase
GCLC mRNA expression (HaCaT cells [6]; 6 hours): significant increase
GCLM mRNA expression (HaCaT cells [6]; 6 hours): significant increase
HMOX1 mRNA expression (HaCaT cells [6]; 6 hours): significant increase
NQO1 mRNA expression (HaCaT cells [6]; 24 hours): increase
GCLM protein level (HaCaT cells [1]; 24 h, vs vehicle): significantly higher
NQO1 protein level (HaCaT cells [1]; 24 h, vs vehicle): Increased
NRF2 protein level (HaCaT cells [1]; 24 h, vs vehicle): Increased

Compound: Cc1cc(C)c(C)c(S(=O)(=O)Nc2ccc(N3CC[C@H](C(=O)O)C3)c3ccccc23)c1C [RA-839]
In vivo activity ([10]; ref Winkel et al.[31]): active in vivo only if Phase 1 metabolism were inhibited
In vivo metabolism ([10]; ref [31]): metabolized quickly in vivo
